According to US20260250639A1, “REPROGRAMMING METHOD” (Babraham Institute, priority 2022, published 2026):

Key:
NSO4G neural stem cells = assay: Yamanaka factor-mediated reprogramming of NSO4G neural stem cells to iPSCs, flow cytometry of OCT4-GFP positive cells; format: cell-based, mouse; conditions: NSC reprogramming culture, end of reprogramming (day 15)
Source text: FIG. 1: Schematic of method of reprogramming of mouse neural stem cells into induced pluripotent stem (iPS) cells. The mouse neural stem cell (NSC) line NSO4G harbours the GFP transgene under the control of Oct4 regulatory elements. […] Upon reprogramming, iPSCs grow in colonies and express GFP, allowing their visualisation and isolation from the remaining, non-reprogrammed cells.
A-C) Yamanaka factor-mediated reprogramming of NSO4G neural stem cells. D) Yamanaka factor-mediated reprogramming of human fibroblasts. A) Schematic representation of the experimental design for data in panels B and C. B) Flow cytometry plots (left) and quantification data (right) for the number of GFP-positive cells at the end of reprogramming, in the presence of PADI4 or control shRNAs. C) Flow cytometry plots (left) and quantification data (right) for the number of GFP-positive cells at the end of reprogramming, in the presence of CI-amidine or vehicle control. D) Quantification of iPS colonies, as a measure of the degree of reprogramming, after Yamanaka factor-mediated reprogramming of human fibroblasts, in the presence of two independent PADI4 inhibitors (CI-amidine or GSK484) or vehicle controls. […]
To investigate the timing of PADI4 expression during reprogramming, the method of reprogramming neural stem cells (NSCs) to iPSCs described in Theunissen et al. (2011) Current Biology, 21(1): 65-71 (doi: https://doi.org/10.1016/j.cub.2010.11.074) was used (FIG. 1). […] At various reprogramming timepoints, the reprogramming cells were harvested and the levels of mRNA encoding PADI4 and NANOG were quantified by qPCR (FIG. 2A) and protein levels (FIG. 2B). […]
Medium was conditioned by culture on NSC reprogramming cultures (FIG. 5A, “Conditioned medium”, bottom panel) or by incubated in empty plates lacking cells under the same conditions (FIG. 5A, “Control medium”, top panel) and added to new reprogramming (receiving) cultures after every 24 h. Reprogramming efficiency of the receiving cultures was assessed by flow cytometry based GFP quantification at the end of the reprogramming assay (day 15). […]

human fibroblasts = assay: Yamanaka factor-mediated reprogramming of human fibroblasts, iPS colony count; format: cell-based; conditions: human fibroblast reprogramming culture without OCT4-GFP reporter, vs vehicle control
Source text: A-C) Yamanaka factor-mediated reprogramming of NSO4G neural stem cells. D) Yamanaka factor-mediated reprogramming of human fibroblasts. A) Schematic representation of the experimental design for data in panels B and C. B) Flow cytometry plots (left) and quantification data (right) for the number of GFP-positive cells at the end of reprogramming, in the presence of PADI4 or control shRNAs. C) Flow cytometry plots (left) and quantification data (right) for the number of GFP-positive cells at the end of reprogramming, in the presence of CI-amidine or vehicle control. D) Quantification of iPS colonies, as a measure of the degree of reprogramming, after Yamanaka factor-mediated reprogramming of human fibroblasts, in the presence of two independent PADI4 inhibitors (CI-amidine or GSK484) or vehicle controls. The inhibitors were administered throughout the course of reprogramming.
FIG. 10: Inhibition of extracellular chromatin component-sensing pathways inhibits reprogramming. A) Schematic representation of the extra-nuclear DNA sensing pathway cGAS/STING (left panel). Flow cytometry-based quantification of GFP-positive cells at the end of NSC reprogramming (day 15), in the presence of STING inhibitor H-151, vehicle control (DMSO) or no treatment (right panel). B) Schematic representation of the signalling pathway downstream of the Damage Associated Molecular Pattern (DAMP)-sensing Toll-Like Receptor 2 (TLR2; left panel). Flow cytometry-based quantification of GFP-positive cells at the end of NSC reprogramming (day 15), in the presence of TLR2 inhibitor MMG-11, vehicle control (DMSO) or no treatment (right panel). C) Colony count data for quantification of reprogramming of human fibroblast cells at the end of reprogramming (day 40) after treatment with STING inhibitor H-151 (left panel), TLR2 inhibitor MMG-11 (right panel) or vehicle control (DMSO).

[1] = test system: citrullinated histone H3 (H3Cit), product of PADI4 activity; assay: Western blot for citrullinated histone H3 in conditioned medium of NSC reprogramming cultures; format: cell-based, mouse; conditions: conditioned medium from reprogramming cultures, similar total histone H3
Source text: FIG. 7: Citrullinated histones are found in culture medium conditioned by reprogramming cultures. Immunoblot analysis for total histone H3 (top) and two different citrullination marks on histone H3 (middle and bottom) on conditioned medium of NSC reprogramming cells cultured in the presence or absence or the PADI4 inhibitor CI-amidine. Data from two independent experiments are shown. Citrullinated histone H3 is readily detected in the conditioned medium and inhibited by CI-amidine.
Based on this finding, the conditioned medium of Example 4 was analysed for the presence of H3Cit by Western blot (FIG. 7). Citrullinated histone H3 (H3Cit) can be readily detected in the conditioned medium from reprogramming cultures (FIG. 7, middle and lower panels labelled “H3CitR2” and H3CitR8”, lanes labelled “-CI-am”), and this is reduced in conditioned medium from reprogramming cultures in which the PADI4 inhibitor CI-amidine has been added (FIG. 7, middle and lower panels labelled “H3CitR2” and H3CitR8”, lanes labelled “+CI-am”), despite similar levels of total histone H3 being present (FIG. 7, top panel labelled “H3”).

| Structure (SMILES) | proportion of OCT4-GFP positive cells (reprogramming cells) at the end of reprogramming (NSO4G neural stem cells) | number of colonies (successfully reprogrammed cells) (human fibroblasts) | citrullinated histone H3 (H3CitR2, H3CitR8) detected in conditioned medium [1] |
| --- | --- | --- | --- |
| NC(=O)[C@H](CCCN=C(N)CCl)NC(=O)c1ccccc1 [CI-amidine] | The same result is achieved | significantly reduced | reduced |
| COc1cc(C(=O)N2CC[C@@H](O)[C@@H](N)C2)cc2nc(-c3cc4ccccc4n3CC3CC3)n(C)c12 [GSK484] | – | significantly reduced | – |
| CCc1ccc(NC(=O)Nc2c[nH]c3ccccc23)cc1 [H-151] | significantly reduced | significantly reduced number of colonies | – |
| CCOC(=O)c1ccc(CC(=O)c2ccc(O)c(O)c2O)o1 [MMG-11] | significantly reduced | significantly reduced number of colonies | – |
